# From ChEMBL document CHEMBL1130521, “A conformational study of ligands for omega modulatory sites of GABAa receptors by NOESY NMR spectroscopy and distance geometry” (Bioorg Med Chem Lett, 1997)
# pIC50: −log10 of the molar value.
# Tests used:
# [1] = target: T1, Gamma-aminobutyric acid receptor subunit alpha-5 (Homo sapiens, UniProt P31644); assay: Inhibition of [3H]flumazenil binding to recombinant GABA-A receptor alpha-5 subunit in cerebellum; format: tissue-based
# T1 sequence (P31644 whole entry): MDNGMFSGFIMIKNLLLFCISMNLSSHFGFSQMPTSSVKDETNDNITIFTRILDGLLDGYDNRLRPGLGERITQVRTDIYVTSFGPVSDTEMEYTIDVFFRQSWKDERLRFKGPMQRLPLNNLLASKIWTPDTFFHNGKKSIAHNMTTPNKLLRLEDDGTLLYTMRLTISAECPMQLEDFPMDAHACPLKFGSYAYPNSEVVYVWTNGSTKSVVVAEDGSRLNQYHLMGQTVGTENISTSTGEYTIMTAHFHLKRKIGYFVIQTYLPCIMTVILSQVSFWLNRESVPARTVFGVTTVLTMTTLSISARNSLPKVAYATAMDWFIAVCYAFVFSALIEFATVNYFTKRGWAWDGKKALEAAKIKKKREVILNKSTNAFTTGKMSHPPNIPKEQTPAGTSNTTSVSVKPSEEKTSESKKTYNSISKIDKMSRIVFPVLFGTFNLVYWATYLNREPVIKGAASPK
# [2] = target: T1, Gamma-aminobutyric acid receptor subunit alpha-5; assay: Inhibition of [3H]flumazenil binding to recombinant GABA-A receptor alpha-5 subunit in spinal cord; format: tissue-based
smiles,measurement,setting,value
CCCC(=O)N(C)Cc1c(-c2ccc(Cl)cc2)nc2ccccn12,pIC50,[1],8.57
same,pIC50,[2],8.34
